In PubChem BioAssay (NCI):
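48-hour exposure; five concentrations; linearly interpolated endpoints. GI50 = concentration required for 50% inhibition of growth. At the TGI there is no net growth.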

Tests used:
Test in all cases: growth of human tumour cells (NCI), 48 h
COLO 205 colon = tested on: COLO 205 colon
SNB-75 CNS = tested on: SNB-75 CNS
HS 578T breast = tested on: HS 578T breast
MALME-3M melanoma = tested on: MALME-3M melanoma
K-562 leukemia = tested on: K-562 leukemia
UACC-62 melanoma = tested on: UACC-62 melanoma
CAKI-1 renal = tested on: CAKI-1 renal
SK-OV-3 ovarian = tested on: SK-OV-3 ovarian
DU-145 prostate = tested on: DU-145 prostate
HCT-116 colon = tested on: HCT-116 colon

Structure (SMILES)	GI50 (COLO 205 colon) [µM]	TGI (COLO 205 colon) [µM]	GI50 (SNB-75 CNS) [µM]	TGI (SNB-75 CNS) [µM]	GI50 (HS 578T breast) [µM]	TGI (HS 578T breast) [µM]	GI50 (MALME-3M melanoma) [µM]	TGI (MALME-3M melanoma) [µM]	GI50 (K-562 leukemia) [µM]	TGI (K-562 leukemia) [µM]	GI50 (UACC-62 melanoma) [µM]	TGI (UACC-62 melanoma) [µM]	GI50 (CAKI-1 renal) [µM]	TGI (CAKI-1 renal) [µM]	GI50 (SK-OV-3 ovarian) [µM]	TGI (SK-OV-3 ovarian) [µM]	GI50 (DU-145 prostate) [µM]	TGI (DU-145 prostate) [µM]	GI50 (HCT-116 colon) [µM]	TGI (HCT-116 colon) [µM]
CC1Cc2c(Cl)ncnc2N(C)c2ccccc21 (centres undefined)	1.77	3.41	0.352	33.5	1.36	47.3	2.03	7.5	4.44	> 100	3.32	12.8	3.39	> 100	2.37	12.6	4.45	> 100	3.96	80.3
Nc1nc(-c2ccc3c(c2)/C(=C\c2cc(Br)c(O)c(Br)c2)C(=O)N3)cs1	15.1	> 25	11.8	> 25	9.98	> 25	5.95	17.4	10.6	> 25	6.89	23.7	> 25	> 25	17.9	> 25	18.6	> 25	12.9	> 25
O=C1/C=C/[C@@H](O)[C@@H]2C[C@@H](O)C[C@H]2/C=C/CCC[C@H](CCO)O1	0.104	0.241	0.0994	> 100	0.0519	> 100	0.0951	0.529	0.365	> 100	0.186	> 100	0.324	3.43	0.287	> 100	0.426	> 100	0.215	0.454
CC12CCC(C1)C(C)(C)C2OC(=O)c1ccccc1N (centres undefined)		29		35.1		31.5		29.8		32.1		29.2		29.9		30.3		33.3		26.6
CN1CCN(Cc2ccc(NC(=O)c3cncc(C#Cc4ccc(N)nc4)c3)cc2C(F)(F)F)CC1	0.865	3.95	1.06	3.53	0.486	2.16	0.535	1.46	0.005	5.54	0.945	3.48	0.312	2.09	0.693	4.69	0.845	6.71	0.596	3.9
CCOC(=O)N1CCC(N=C2CSc3nnc(-c4cc(C(F)(F)F)cc(C(F)(F)F)c4)n3N2)CC1	2.17	3.93	1.92	5.54	2.31	6.4	1.68	3.31	2.88	6.92	1.64	3.36	2.04	5.97	3.21	8.71	2.39	6.17	1.9	3.7
COc1cc2[nH]c3c(c2cc1OC)CCN[C@@]31CC[C@@]2(CC3c4c(cc(OC)c(O)c42)CCN3C)C[C@@H]1OC (some centres undefined)		38.4		54		> 52.5		33.8		56.5		45.3		> 79.5		> 100		> 100		> 87.4
CC1=CC2(C)/C=C(C)/C=C\CC(O)/C=C3/C=CC(=C4C(=O)OC2(CC1C)C4=O)OC3 (centres undefined)	1.47	3.65	2.84	17.3	2.25	6.97	2.14	5.13	1.2	> 100	3.3	10.8	1.65	3.63	19.4	47.3	1.81	3.59	0.541	5.02
COC(=O)CC[C@@H](C)[C@H]1CC[C@H]2[C@@H]3CC[C@@H]4C[C@H](O)CC[C@]4(C)[C@H]3CC[C@]12C		35.4		36.1		55.8		34.8		65.7		34.3		34.1		49.9		32.6		31.8
COc1cccc(N2CC(O)=C(c3nc4ccccc4s3)C2=N)c1	0.472	> 100		1.98	0.47	> 44.7	0.266	> 100	< 0.0204	> 100	0.239	2.61	0.11	> 100	0.702	33.5	1.75	> 100	0.35	> 47.2
Cc1cc(I)cc(CN(C)CCCN2CCC(C)CC2)c1O	13.4	28	11	23	12.1	26.2	16.9	33	10.9	35.7	14.2	30.4	13.5	28.7	15.9	31.1	15.5	28.8	10.4	22.1
Nc1ccc(C#Cc2ccccc2C#CCCCCO)cc1	16.1	30.1	14.4	29.8	26.8	64.7	24.8	43.9	19.7	40.8	14.9	28.3	20.9	40.4	18.1	34.7	18.4	35.1	14.3	28.2
Cc1ccc(NC(=O)COc2ccc(Cl)cc2)cc1Cl		> 100		> 100		> 100		> 100		> 100		> 100		81.9		> 100		> 100		> 100
C[C@]12CCC(=O)C=C1C[C@@H](O)[C@@H]1[C@@H]2CC[C@@]2(C)[C@H]1CC[C@]2(C)O		> 100		> 100		> 100		> 100		> 100		> 100		> 100		> 100		> 100		> 100
Oc1c(C(c2ccc(F)cc2)N2CCCCC2)ccc2cncnc12 (centres undefined)	3.3	> 100	0.246	3.95	0.432	> 100	1.17	47.9	0.503	> 100	0.476	5.11	0.899	13.4	0.571	38.8	0.784	> 100	0.364	> 100
Cc1cc(N(CCC#N)S(=O)(=O)c2ccccc2)ccc1C=Nc1ccc(C(=O)O)cc1		10.1		29.1		> 100		12		17.9		37.1		5.73		48.9		> 100		14.7
N#C/C(=C\c1ccc[nH]1)c1cc(-c2ccc(Cl)cc2)nn1-c1ccccc1	3.16	8.17	2.29	16	2.17	14.1	3.05	17.2	3.24	10.9	7.39	28.2	3.16	> 100	7.88	40.2	3.81	> 40.7	3.28	12.8
C=C1C(=O)O[C@@H]2/C=C(/C)[C@@H](OC(C)=O)C[C@@H](O)/C(C)=C\[C@@H](OC(=O)[C@]3(C)O[C@@H]3C)[C@@H]12		19.4		37.6		> 100		11.6		17.5		31.9		11.1		> 100		28.1		13.6
COC(=O)C1=C(C)NC(=S)NC1c1ccc(N(CCCl)CCCl)cc1Cl (centres undefined)		59.7		> 100		> 100		41.7		> 57.5		16.1		14.6		> 100		> 81.1		> 100
OC(c1cc(C(F)(F)F)nc2c(Cl)cc(Cl)cc12)C1CCCCN1 (centres undefined)		9.29		24.4		> 48.4		> 36.9		> 34.1		> 47.7		21.2		25.2		20		> 35.9
CC(C)(C)NCC(O)c1ccccc1Cl (centres undefined)	> 100	> 100	> 100	> 100	> 100	> 100	> 100	> 100	> 100	> 100	> 100	> 100	> 100	> 100	> 100	> 100	> 100	> 100	> 100	> 100
CC1(C)OCC2OC(n3cnc4c(N)nc(Cl)nc43)C(OS(C)(=O)=O)C2O1 (centres undefined)		> 100		> 100		> 100		> 100		> 100		> 100		> 100		> 100		> 100		> 100
CC(=O)C1=C(C)N(Cc2ccccc2)C2(O)C=CC(=O)C3=C(O)c4ccccc4C(=O)C312 (centres undefined)	2.38	5.04	4.88	25	18.5	60	1.44	2.97	8.68	> 100	2.64	7.64	2.47	6.37	18.3	42.4	4.57	19.7	1.99	3.86
Clc1cnc(Nc2ccc(OCCN3CCCC3)cc2)nc1NCc1ccco1	1.71	4.05	1.91	4.27	1.39	5.18	2.1	5.79	3.19	52.6	1.83	3.73	1.63	26.6	3.62	34.1	3.43	> 100	2.56	28.6
Cn1nc(C(F)(F)F)cc1-c1cc(Cl)c(OCc2ccc(Cl)cc2)c(-c2ccc(Cl)c(C(F)(F)F)c2)c1O	0.718	2.39	0.984	2.68	0.975	2.92	1.06	2.57	0.312	5.08	0.91	2.51	1.11	3.49	1.43	4.31	1.76	6.87	0.691	1.86
